Columns and labels:
Type in all cases: ADME
[1] = target: T1, UDP-glucuronosyltransferase 1A9 (Homo sapiens, UniProt O60656); assay: Activity of human recombinant UGT1A9 expressed in baculovirus-infected insect cells assessed as unbound intrinsic clearance for enzyme-mediated glucuronidation per mg of protein after 5 mins by Michaelis-Menten plot analysis in presence of UDPGA and 0.1% fatty acid free BSA
T1 sequence (O60656 whole entry): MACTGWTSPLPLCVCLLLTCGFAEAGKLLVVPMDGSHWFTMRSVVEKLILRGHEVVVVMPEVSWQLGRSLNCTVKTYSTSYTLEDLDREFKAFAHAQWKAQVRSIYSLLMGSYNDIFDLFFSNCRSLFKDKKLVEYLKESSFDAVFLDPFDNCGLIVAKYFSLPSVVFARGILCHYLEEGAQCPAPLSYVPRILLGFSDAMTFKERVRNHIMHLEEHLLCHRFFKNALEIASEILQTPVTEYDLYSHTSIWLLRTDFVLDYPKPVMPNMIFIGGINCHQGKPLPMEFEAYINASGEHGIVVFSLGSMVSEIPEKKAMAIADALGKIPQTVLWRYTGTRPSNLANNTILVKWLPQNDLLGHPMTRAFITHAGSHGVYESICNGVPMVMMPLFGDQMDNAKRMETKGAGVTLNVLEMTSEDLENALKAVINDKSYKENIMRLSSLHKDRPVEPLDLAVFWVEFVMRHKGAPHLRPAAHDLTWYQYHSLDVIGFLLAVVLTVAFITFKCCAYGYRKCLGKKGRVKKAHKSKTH

[2] = target: T2, UDP-glucuronosyltransferase 1A1 (Homo sapiens, UniProt P22309); assay: Activity of human recombinant UGT1A1 expressed in baculovirus-infected insect cells assessed as enzyme-mediated glucuronidation per mg of protein after 10 mins in presence of UDPGA
T2 sequence (P22309 whole entry): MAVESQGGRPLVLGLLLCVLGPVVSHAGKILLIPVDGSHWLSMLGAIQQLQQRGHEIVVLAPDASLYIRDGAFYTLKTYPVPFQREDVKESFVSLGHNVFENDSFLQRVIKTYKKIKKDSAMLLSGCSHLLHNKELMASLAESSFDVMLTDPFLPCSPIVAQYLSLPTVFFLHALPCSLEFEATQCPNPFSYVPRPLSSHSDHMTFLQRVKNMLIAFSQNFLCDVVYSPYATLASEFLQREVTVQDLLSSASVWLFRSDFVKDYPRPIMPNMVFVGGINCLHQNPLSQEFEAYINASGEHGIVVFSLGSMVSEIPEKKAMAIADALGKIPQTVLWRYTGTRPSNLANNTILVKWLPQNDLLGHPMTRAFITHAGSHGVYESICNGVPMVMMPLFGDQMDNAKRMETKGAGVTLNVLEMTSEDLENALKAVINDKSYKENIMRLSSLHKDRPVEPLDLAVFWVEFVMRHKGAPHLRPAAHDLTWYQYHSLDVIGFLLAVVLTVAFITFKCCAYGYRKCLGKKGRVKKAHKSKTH

[3] = target: T3, UDP-glucuronosyltransferase 2B7 (Homo sapiens, UniProt P16662); assay: Activity of human recombinant UGT2B7 expressed in baculovirus-infected insect cells assessed as enzyme-mediated glucuronidation per mg of protein after 10 mins in presence of UDPGA
T3 sequence (P16662 whole entry): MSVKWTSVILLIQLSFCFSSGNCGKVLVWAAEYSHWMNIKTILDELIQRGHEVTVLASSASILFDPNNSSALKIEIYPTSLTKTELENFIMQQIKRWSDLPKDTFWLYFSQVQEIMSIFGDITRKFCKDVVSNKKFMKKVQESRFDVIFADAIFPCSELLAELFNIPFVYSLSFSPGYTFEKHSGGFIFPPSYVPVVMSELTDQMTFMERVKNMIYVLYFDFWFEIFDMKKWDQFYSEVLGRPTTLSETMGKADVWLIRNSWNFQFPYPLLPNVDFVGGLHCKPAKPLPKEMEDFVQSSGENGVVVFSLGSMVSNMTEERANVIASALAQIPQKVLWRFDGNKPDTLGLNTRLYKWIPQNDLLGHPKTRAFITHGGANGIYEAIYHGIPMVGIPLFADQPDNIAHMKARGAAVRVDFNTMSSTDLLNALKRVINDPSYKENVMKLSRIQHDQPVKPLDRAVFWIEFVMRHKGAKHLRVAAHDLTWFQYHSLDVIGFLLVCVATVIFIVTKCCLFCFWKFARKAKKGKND

[4] = Drug metabolism in human liver microsomes assessed as glucuronidation after 10 mins by Michaelis-Menten plot analysis in presence of UDPGA and absence of fatty acid free BSA; conditions: read-out: Km(unbound)
[5] = Drug metabolism in human liver microsomes assessed as glucuronidation at 30 uM after 10 mins by LC-MS/MS analysis relative to vehicle-treated control in presence of propofol and UDPGA; conditions: with propofol, read-out: Drug metabolism
Liver microsome [6] = assay: Drug metabolism in human liver microsomes assessed as glucuronidation per mg of protein after 10 mins by Michaelis-Menten plot analysis in presence of UDPGA and 2% fatty acid free BSA
Liver microsome [7] = assay: Drug metabolism in human liver microsomes assessed as glucuronidation per mg of protein after 10 mins by Michaelis-Menten plot analysis in presence of UDPGA and 0.5% fatty acid free BSA

Question: For COc1ccc(C(=O)Nc2cccc(O)c2NC(=O)c2ccc(N3CCCN(C)CC3)cc2)cc1.O=C(O)CCC(=O)O, which CL free [1] is on record?
Answer: Its CL free is 250 µL/min/mg.

Question: What about the Drug metabolism [2] of the same compound?
Answer: Its Drug metabolism is less than 0.01 nmol/min/mg.

Question: And the Drug metabolism [3]?
Answer: The Drug metabolism was less than 0.01 nmol/min/mg.

Question: And the Km at 10 min [4]?
Answer: Its Km at 10 min is 216 µM.

Question: And the activity at 10 min, 30 µM [5]?
Answer: Its activity at 10 min, 30 µM is 9%.

Question: And the Vmax (Liver microsome [6])?
Answer: The Vmax was 3.14 nmol/min/mg.

Question: And the Vmax (Liver microsome [7])?
Answer: The Vmax was 3.25 nmol/min/mg.
